Results: patent publication US8748448B2, “Combination analgesic employing opioid agonist and neutral antagonist” (AIKO Biotechnology, priority 2007, dated 2014)

Assays:
[1] = 6β-naltrexol plasma pharmacokinetics after i.v. infusion, opioid-naïve volunteers (eIND); details: humans
[2] = system: hydrocodone-induced antinociception; experiment: 55° C. warm-water tail-flick assay: inhibition of hydrocodone-induced antinociception; type: in vivo, mice; details: for time of peak effect of antinociception inhibition: hydrocodone 3.2 mg/kg i.v.
[3] = system: hydrocodone induced GI inhibition; experiment: GI transit assay (charcoal meal): reversal of hydrocodone induced GI inhibition
[4] = antagonist p.o. co-administered with hydrocodone A90 32 mg/kg p.o.

6β-naltrexol
blood half-life relative to most commonly used oral opioid analgesic formulations [1]: 3-4 times | mean terminal plasma elimination half-life ([1]; i.v. infusion 3 mg or 10 mg): 11.1 ± 2.4 h | Antinociception ID50 ([2]; antagonist i.v. pretreatment, hydrocodone A90 3.2 mg/kg i.v.): 0.222 mg/kg | Antinociception ID50 [2, 4]: 12.3 mg/kg | Antinociception ID50 ([2]; antagonist p.o. pretreatment, hydrocodone A90 3.2 mg/kg i.v.): 2.35 mg/kg | time of peak effect of antinociception inhibition ([2]; i.v. administration): 90 min | time of peak effect of antinociception inhibition ([2]; p.o. administration): 120 min | GI Transit ID50 ([3]; antagonist i.v., hydrocodone A90 3.2 mg/kg i.v.): 0.0443 mg/kg | GI Transit ID50 [3, 4]: 1.290 mg/kg | GI Transit ID50 ([3]; antagonist p.o., hydrocodone A90 3.2 mg/kg i.v.): 0.410 mg/kg | induction of diarrhea ([3]; on administration of the antagonist): absent
